Our source for the IC50 values is patent US20240376085A1 (Janssen Pharmaceutica NV, priority 2021, published 2024).

One test addresses T1, IL-17A : IL-17RA binding (Homo sapiens, UniProt Q16552, K93Q).
T1 construct: Name: IL-17A-Flag
In words: IL-17A(FLAG-tagged):IL-17RA(His-tagged) binding disruption Eu-HTRF assay, Protocol 1. The settings on record: FLAG-IL-17A 2.5 nM at 2x final concentration; average if tested more than once. Summed up:
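IC50 came from a one-site competition fit of the acceptor/donor (665/620 nm) HTRF ratio. His-tagged IL-17RA, Eu-anti-FLAG and D2-anti-His were added after a 1 h rt compound preincubation with FLAG-tagged IL-17A dimer in PBS/0.01% Triton X-100, followed by 2 h at rt before reading.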

Test [1] relates to IL-17A-induced G-CSF production in human normal keratinocyte (NHK). Briefly: NHK assay: IL-17A-induced G-CSF production in normal human keratinocytes. It is filed as cell-based. Conditions: 24 h, IL-17A 5 ng/mL, average if tested more than once. In short, it runs like this: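 IC50 derives from G-CSF in supernatants, quantified by HTRF from a standard curve, with CellTiter-Glo viability compared to DMSO control. Before a 24 h, 37°C culture of normal human keratinocytes at 3000–4000 cells/well, compound dilutions were preincubated 1 h at rt with human IL-17A (5 ng/mL final), with 0.2% DMSO and 5% FBS.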

As a reminder, the IC50 is the concentration that gives 50% inhibition. Low readings indicate greater potency in that assay, high ones weaker potency in that assay.

T1 sequence (Q16552 with tags, fused parts or gaps K93Q): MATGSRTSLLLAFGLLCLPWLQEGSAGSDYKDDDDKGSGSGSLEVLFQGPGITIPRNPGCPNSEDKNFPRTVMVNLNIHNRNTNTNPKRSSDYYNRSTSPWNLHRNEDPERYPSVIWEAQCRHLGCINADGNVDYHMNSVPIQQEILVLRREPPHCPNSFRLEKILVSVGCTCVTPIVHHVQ

Regarding `C[C@@H](NC(=O)CCC(F)(F)F)c1ccc2[nH]c([C@@H](NC(=O)c3cnnn3CC3CCC3(F)F)C3CCC(F)(F)CC3)nc2c1` (stereo partly drawn) [Example 86, 1-((2,2-Difluorocyclobutyl)methyl)-N—((S)-(4,4-difluorocyclohexyl)(5-((R)-1-(4,4,4-trifluorobutanamido)ethyl)-1H-benzo[d]imidazol-2-yl)methyl)-1H-1,2,3-triazole-5-carboxamide], the IC50 is over 100 nM at IL-17A : IL-17RA binding and over 100 nM in test [1] (Homo sapiens, Keratinocyte).

Turning to `Cc1nonc1C(=O)N[C@@H](CC(C)(C)C(F)(F)F)c1nc2ccc([C@H](NC(=O)CC3CC3(F)F)C3CC3)cc2[nH]1` (single isomer, unassigned) [Example 183, N—((S)-1-(6-((R)-Cyclopropyl(2-((R*)-2,2-difluorocyclopropyl)acetamido)methyl)-1H-benzo[d]imidazol-2-yl)-4,4,4-trifluoro-3,3-dimethylbutyl)-4-methyl-1,2,5-oxadiazole-3-carboxamide], the IC50 at IL-17A : IL-17RA binding was under 50 nM; in test [1] (Homo sapiens, Keratinocyte), over 100 nM.

Turning to `CC(C)n1nccc1C(=O)N[C@H](c1nc2ccc([C@@H](C)NC(=O)CC(C)C(F)(F)F)cc2[nH]1)C1CCC(F)(F)CC1` (single isomer, unassigned) [Example 135, N—((S)-(4,4-Difluorocyclohexyl)(6-((R)-1-((R*)-4,4,4-trifluoro-3-methylbutanamido)ethyl)-1H-benzo[d]imidazol-2-yl)methyl)-1-isopropyl-1H-pyrazole-5-carboxamide], the IC50 on IL-17A : IL-17RA binding is over 100 nM; in test [1] (Homo sapiens, Keratinocyte) it was under 50 nM.

`C[C@@H](NC(=O)CCC(F)(F)F)c1ccc2nc([C@@H](NC(=O)c3cnn(CC4CC(F)(F)C4)n3)C3CCC(F)(F)CC3)[nH]c2c1` [Example 64, 2-((3,3-Difluorocyclobutyl)methyl)-N—((S)-(4,4-difluorocyclohexyl)(6-((R)-1-(4,4,4-trifluorobutanamido)ethyl)-1H-benzo[d]imidazol-2-yl)methyl)-2H-1,2,3-triazole-4-carboxamide]: the IC50 was over 100 nM at IL-17A : IL-17RA binding and over 100 nM in test [1] (Homo sapiens, Keratinocyte).

As to `CC(CC(=O)N[C@H](C)c1ccc2nc([C@@H](NC(=O)c3cc(F)ccc3F)C3CCC(F)(F)CC3)[nH]c2c1)C(F)(F)F` (single isomer, unassigned) [Example 140, N—((S)-(4,4-Difluorocyclohexyl)(6-((R)-1-((S*)-4,4,4-trifluoro-3-methylbutanamido)ethyl)-1H-benzo[d]imidazol-2-yl)methyl)-2,5-difluorobenzamide], the IC50 (on IL-17A : IL-17RA binding; in test [1]) was over 100 nM each time.

On to `Cc1nonc1C(=O)N[C@H](c1nc2ccc([C@H](NC(=O)CC3CC(F)(F)C3)C3CC3)cc2[nH]1)[C@@H]1C[C@H]2C[C@H]2C1` [Example 254, N—((S)-((1R,3s,5S)-Bicyclo[3.1.0]hexan-3-yl)(6-((R)-cyclopropyl(2-(3,3-difluorocyclobutyl)acetamido)methyl)-1H-benzo[d]imidazol-2-yl)methyl)-4-methyl-1,2,5-oxadiazole-3-carboxamide], for which the IC50 was under 50 nM at IL-17A : IL-17RA binding and over 100 nM in test [1] (Homo sapiens, Keratinocyte).

As for `C[C@@H](NC(=O)CCC(F)(F)F)c1ccc2nc([C@@H](NC(=O)c3cn(CC(F)(F)F)nc3C3CC3)C3CCC(F)(F)CC3)[nH]c2c1` [Example 75, 3-Cyclopropyl-N—((S)-(4,4-difluorocyclohexyl)(6-((R)-1-(4,4,4-trifluorobutanamido)ethyl)-1H-benzo[d]imidazol-2-yl)methyl)-1-(2,2,2-trifluoroethyl)-1H-pyrazole-4-carboxamide], the IC50 at IL-17A : IL-17RA binding is over 100 nM; in test [1] (Homo sapiens, Keratinocyte), over 100 nM.

Take `O=C(CC1CC(F)(F)C1)N[C@@H](c1ccc2nc([C@@H](NC(=O)c3nonc3C3CC3)[C@@H]3C[C@@H]4[C@H](C3)C4(F)F)[nH]c2c1)C1CC1` [Example 239, 4-Cyclopropyl-N—((S)-(6-((R)-cyclopropyl(2-(3,3-difluorocyclobutyl)acetamido)methyl)-1H-benzo[d]imidazol-2-yl)((1R,3s,5S)-6,6-difluorobicyclo[3.1.0]hexan-3-yl)methyl)-1,2,5-oxadiazole-3-carboxamide]: the IC50 on IL-17A : IL-17RA binding is under 50 nM; in test [1] (Homo sapiens, Keratinocyte) it was under 50 nM.
